Patent publication EP0598515A1, “Method for herbicidal activity-enhancing, activity-enhanced herbicidal composition and activity-enhancing composition” (ISHIHARA SANGYO KAISHA LTD., priority 1992, dated 1994)
Read-outs that look alike come from different tables or passages of the source.

Key:
Assay type in all cases: in vivo
[1] = system: Crabgrass (Digitaria sanguinalis L.); experiment: Test Example 7: pot test, Example 8 suspension concentrate with Frigate; conditions: 20 days after treatment, duplicate; for inhibition at 5 g/ha / inhibition at 10 g/ha / inhibition at 20 g/ha / inhibition at 40 g/ha: Digitaria sanguinalis, 480 h, read-out: Growth Inhibition (%) of Crabgrass; for inhibition at 20 g/ha: Compound A 20 g/ha; for inhibition at 40 g/ha: Compound A 40 g/ha
Method: (§1) Crabgrass (Digitaria sanguinalis L.) seeds were sown in 1/1,000,000-hectare pots filled with upland soil and arranged in a duplicate system. When the crabgrass plants grew to a 3- to 3.3-leaf stage, the oil-based suspension concentrate obtained in Example 8 was diluted with 500 liters/hectare of water containing a predetermined amount of Frigate and was applied foliarly to the plants with a small spray gun.
Twenty days after treatment, the growth inhibition of plants was evaluated with visual observation in the same manner as in Teat Example 1 and are shown in Table 7.

[2] = system: Common lambsquarters (Chenopodium album L.); experiment: Test Example 8: pot test, Example 8 suspension concentrate with Frigate; conditions: 408 h, 17 days after treatment, duplicate, read-out: Growth Inhibition (%) of Common Lambsquarters; for inhibition at 5 g/ha: Compound A 5 g/ha; for inhibition at 10 g/ha: Compound A 10 g/ha; for inhibition at 20 g/ha: Compound A 20 g/ha; for inhibition at 40 g/ha: Compound A 40 g/ha
Method: as §1, with “Common lambsquarters (Chenopodium album” for “Crabgrass (Digitaria sanguinalis”, “common lambsquarters” for “crabgrass”, “8-” for “3-”, “9-leaf” for “3.3-leaf”
Seventeen days after treatment, the growth inhibition of plants was evaluated with visual observation in the same manner as in Test Example 1 and are shown in Table 8.

[3] = system: Velvetleaf (Abutilon theophrasti MEDIC.); experiment: Test Example 9: pot test, Example 8 suspension concentrate with Frigate; conditions: Abutilon theophrasti, 528 h, 22 days after treatment, read-out: Growth Inhibition (%) Velvetleaf; for inhibition at 10 g/ha: Compound A 10 g/ha; for inhibition at 20 g/ha: Compound A 20 g/ha; for inhibition at 40 g/ha: Compound A 40 g/ha
Method: as §1, with “Velvetleaf (Abutilon theophrasti MEDIC.) and common cocklebur (Xanthium strumarium” for “Crabgrass (Digitaria sanguinalis”, “velvetleaf plants and common cocklebur” for “crabgrass”, “2.1- and 2.3-leaf” for “3- to 3.3-leaf”, “stage, respectively,” for “stage,”
Twenty two days after treatment, the growth inhibition of plants was evaluated with visual observation in the same manner as in Test Example 1 and are shown in Table 9.

[4] = Frigate 0.125 % by volume, Compound A 5 g/ha
[5] = Frigate 0.125 % by volume, duplicate
[6] = Frigate 0.25 % by volume, duplicate
[7] = Frigate 0.5 % by volume, duplicate
[8] = Frigate: No addition, duplicate

SMILES: COc1cc(OC)nc(NC(=O)NS(=O)(=O)c2ncccc2C(=O)N(C)C)n1 [Compound A, N-[(4,6-dimethoxypyrimidin-2-yl)aminocarbonyl]-3-dimethylaminocarbonyl-2-pyridinesulfonamide]
- inhibition at 5 g/ha [1, 4]: 40%
- inhibition at 10 g/ha ([1]; Frigate 0.125 % by volume, Compound A 10 g/ha): 85%
- inhibition at 20 g/ha ([1]; Frigate 0.125 % by volume): 90%
- inhibition at 40 g/ha ([1]; Frigate 0.125 % by volume): 100%
- inhibition at 5 g/ha ([1]; Frigate 0.25 % by volume, Compound A 5 g/ha): 50%
- inhibition at 10 g/ha ([1]; Frigate 0.25 % by volume, Compound A 10 g/ha): 95%
- inhibition at 20 g/ha ([1]; Frigate 0.25 % by volume): 100%
- inhibition at 40 g/ha ([1]; Frigate 0.25 % by volume): 100%
- inhibition at 5 g/ha ([1]; Frigate 0.5 % by volume, Compound A 5 g/ha): 75%
- inhibition at 10 g/ha ([1]; Frigate 0.5 % by volume, Compound A 10 g/ha): 95%
- inhibition at 20 g/ha ([1]; Frigate 0.5 % by volume): 100%
- inhibition at 40 g/ha ([1]; Frigate 0.5 % by volume): 98%
- inhibition at 5 g/ha ([1]; Frigate: No addition, Compound A 5 g/ha): 0%
- inhibition at 20 g/ha ([1]; Frigate: No addition): 70%
- inhibition at 40 g/ha ([1]; Frigate: No addition): 85%
- Growth Inhibition (%) of Crabgrass [1, 4]: 45%
- Growth Inhibition (%) of Crabgrass ([1]; Frigate: No addition, Compound A 10 g/ha): 5%
- inhibition at 5 g/ha ([2]; Frigate 0.25 % by volume): 50%
- inhibition at 10 g/ha ([2]; Frigate 0.25 % by volume): 60%
- inhibition at 20 g/ha ([2]; Frigate 0.25 % by volume): 80%
- inhibition at 40 g/ha ([2]; Frigate 0.25 % by volume): 90%
- inhibition at 5 g/ha ([2]; Frigate 0.5 % by volume): 55%
- inhibition at 10 g/ha ([2]; Frigate 0.5 % by volume): 70%
- inhibition at 20 g/ha ([2]; Frigate 0.5 % by volume): 85%
- inhibition at 40 g/ha ([2]; Frigate 0.5 % by volume): 90%
- inhibition at 5 g/ha ([2]; Frigate: No addition): 0%
- inhibition at 10 g/ha ([2]; Frigate: No addition): 0%
- inhibition at 20 g/ha ([2]; Frigate: No addition): 50%
- inhibition at 40 g/ha ([2]; Frigate: No addition): 80%
- inhibition at 10 g/ha [3, 5]: 30%
- inhibition at 20 g/ha [3, 5]: 65%
- inhibition at 40 g/ha [3, 5]: 85%
- inhibition at 10 g/ha [3, 6]: 40%
- inhibition at 20 g/ha [3, 6]: 80%
- inhibition at 40 g/ha [3, 6]: 85%
- inhibition at 10 g/ha [3, 7]: 60%
- inhibition at 20 g/ha [3, 7]: 80%
- inhibition at 40 g/ha ([3]; Frigate 0.5 % by volume): 90%
- inhibition at 20 g/ha [3, 8]: 20%
- inhibition at 40 g/ha [3, 8]: 65%
- inhibition at 50 g/ha ([3]; Frigate: No addition, Compound A 50 g/ha, duplicate): 75%
- inhibition at 60 g/ha ([3]; Frigate: No addition, Compound A 60 g/ha, duplicate): 80%
